Experimental data as given in patent publication US4960788A, “Pyrrolidone-2 compounds and their use for central analgesic activity” (priority 1988, dated 1990).
Where two headings read alike, the source gives them in different places.

Columns and labels:
[1] = Jumping test on mouse (capacity to induce physical dependence); format: in vivo; conditions: Naloxone 10 mg/kg i.p. 4 hours after last administration, 15 minutes
Description: The compounds object of the present invention were tested in vivo in order to evaluate the capacity to induce physical dependence. The Jumping test described by Sealens et al. [Committee on Problems of Drug Dependence, vol. 2, (1971), page 1310] was used.
After 4 hours from the last administration, the animals were treated with Naloxone (10 mg/kg i.p.) and the number of jumps taken by the animals during the period of 15 minutes after the administration of Naloxone was counted.
In table 4, for exemplifying purposes, the percentage of jumping animals obtained for a compound of formula I is reported.

opioid receptors = target: T1, opioid receptors (Rattus norvegicus, UniProt P33535); assay: competition for binding of [^3 H]-dihydromorphine (DHM) to opioid receptors in rat-brain homogenate; design: species or system rat (Sprague-Dawley); conditions: 1 nM ^3 H-DHM; 25° C., 30 minutes; read-out: IC50 for specific binding of ^3 H-DHM to rat-brain homogenate
T1 construct: opioid receptors in rat-brain homogenate; from tissue; host or cells: rat brain (Sprague-Dawley) without cerebellum, homogenate / crude membrane pellet
Description: (1) Evaluation of the competition for binding of [^3 H]-dihydromorphine(DHM) to opioid receptors in rat-brain homogenate
The experiments were carried out according to the method described by Simon et al. [Proc. Nat. Acad. Sci. U.S.A., 70, pp. 1947-1949, (1973)].
Sprague-Dawley rats weighing about 150 g were used.
The animals were decapitated and, after removal of cerebellum, the brains were homogenized in […] Tris-HCl buffer (pH 7.4) containing 0.32M saccharose. The homogenate was centrifugated at 1000 rpm for 10 minutes and the supranatant was centrifugated again at 20000 rpm for 20 minutes.
The obtained pellet was suspended in a homogenization buffer without saccharose up to a protein concentration of 2 mg/ml. The incubating system consisted in: 500 μl of homogenate (1 mg of proteins), 390 μl of 50 mM Tris-HCl buffer (pH 7.4), 100 μl of a solution at different concentrations of the compounds of formula I or of 10 μM Naloxone for the determination of the aspecific binding and 10 μl of ^3 H-DHM (specific activity […], 1 nM final concentration). The mixture was incubated at 25° C. for 30 minutes after the addition of the radioactive binder.
Then, the samples were filtered through Whatman GF/B filters, washed twice with 3 ml volumes of buffer and dried in oven at 70° C. Filters were put in scintillation vials with 15 ml of Filter Count (Packard) scintillation cocktail and the radioactivity was evaluated by a Packard Tricarb 4530 scintillation counter with 60% efficiency.
The activity was expressed as inhibiting concentration (IC50) 50% of the binding of ^3 H-DHM.

[2] = system: guinea-pig isolated ileum; assay: morphine-like activity on guinea-pig isolated ileum (inhibition of electrically induced contractions); format: cell-based; conditions: inhibition of 50% of contraction, electric stimulation 0.1 Hz-0.5 msec.
Description: The experiments were carried out according to the method described by Goldstein and Schultz (Br. J. Pharmacol., 48, 655, 1975) which is based on the capacity of the molecules showing an agonist activity on opioid receptors to inhibit the contractions of smooth muscles of guinea-pig ileum induced by electric stimulation (0.1 Hz-0.5 msec.).
The pharmacological activity was expressed as the necessary concentration (mM) to inhibit 50% of contraction (IC50).

[3] = hot plate test on mouse (central analgesic activity); format: in vivo
Description: The compounds object of the present invention were tested in vivo in order to evaluate the central analgesic activity.
The hot plate test was carried out on mouse according to the method described by Eddy et al. (J. Pharmacol., 98, 121, 1950). The compounds were administered by systemic route (oral and subcutaneous). The analgesic activity was expressed as 50% effective dose (ED50).
In table 3 the results obtained for some representative compounds of formula I are reported.

[4] = oral, mouse hot plate test, read-out: Analgesic activity ED50 (C.L. 95%), os
[5] = sc, subcutaneous, mouse hot plate test, read-out: Analgesic activity ED50 (C.L. 95%), s.c.

T1 sequence (P33535 whole entry): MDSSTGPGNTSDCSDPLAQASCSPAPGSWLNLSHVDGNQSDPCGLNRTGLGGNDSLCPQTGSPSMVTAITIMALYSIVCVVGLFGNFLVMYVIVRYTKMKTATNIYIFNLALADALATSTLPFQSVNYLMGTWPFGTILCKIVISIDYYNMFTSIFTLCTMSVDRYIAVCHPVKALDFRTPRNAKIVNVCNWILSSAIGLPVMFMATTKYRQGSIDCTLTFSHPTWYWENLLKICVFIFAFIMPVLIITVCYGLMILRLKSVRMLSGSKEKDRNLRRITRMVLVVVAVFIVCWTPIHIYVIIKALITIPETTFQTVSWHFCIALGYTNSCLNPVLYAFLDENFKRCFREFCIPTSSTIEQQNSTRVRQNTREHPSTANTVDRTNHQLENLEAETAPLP

Structure (SMILES) | IC50 ([2]; Cavia porcellus) | ED50 [3, 5] | also measured
CC[C@@H](C)N(C[C@H](O)[C@@H]1CCC(=O)N1Cc1ccccc1Cl)[C@H](C)CC [Compound 1, (1S)-1-[(5S)-1-[(2-chlorophenyl)methyl]-2-oxo-5-pyrrolidinyl]-2-[(2R,2'R)-disec.butylamino]ethanol] | 0.03 nM | 0.011 mg/kg | Percentage of jumping animals (total dose 3.8 mg/kg i.p.) ([1]; total dose 3.8 mg/kg i.p.): 5%; IC50 (opioid receptors): 0.9 nM; ED50 [3, 4]: 2.6 mg/kg
CC[C@@H](C)N(C[C@H](O)[C@H]1CCC(=O)N1Cc1ccccc1Cl)[C@H](C)CC [Compound 3, (1S)-1-[(5R)-1-[(2-chlorophenyl)methyl]-2-oxo-5-pyrrolidinyl]-2-[(2R,2'R)-disec.butylamino]ethanol] | 4.6 nM | – | –
CC[C@@H](C)N(C[C@@H](O)[C@H]1CCC(=O)N1Cc1ccccc1Cl)[C@H](C)CC [Compound 4, (1R)-1-[(5R)-1-[(2-chlorophenyl)methyl]-2-oxo-5-pyrrolidinyl]-2-[(2R,2'R)-disec.butylamino]ethanol] | 8.7 nM | 3.8 mg/kg | –
CC[C@H](C)N(C[C@@H](O)[C@@H]1CCC(=O)N1Cc1ccccc1Cl)[C@@H](C)CC [Compound 5, (1R)-1-[(5S)-1-[(2-chlorophenyl)methyl]-2-oxo-5-pyrrolidinyl]-2-[(2S,2'S)-disec.butylamino]ethanol] | 50 nM | – | –
CC[C@@H](C)N(C[C@@H](O)[C@@H]1CCC(=O)N1Cc1ccccc1Cl)[C@@H](C)CC [Compound 7, (1R)-1-[(5S)-1-[(2-chlorophenyl)methyl]-2-oxo-5-pyrrolidinyl]-2-[(2R,2'S)-disec.butylamino]ethanol] | 70 nM | – | –
CC[C@@H](C)N(C[C@H](O)[C@@H]1CCC(=O)N1Cc1ccccc1Cl)[C@@H](C)CC [Compound 8, (1S)-1-[(5S)-1-[(2-chlorophenyl)methyl]-2-oxo-5-pyrrolidinyl]-2-[(2R,2'S)-disec.butylamino]ethanol] | 44 nM | 1.4 mg/kg | –
CC[C@@H](C)N(C[C@@H](O)[C@H]1CCC(=O)N1Cc1ccccc1Cl)[C@@H](C)CC [Compound 12, (1R)-1-[(5R)-1-[(2-chlorophenyl)methyl]-2-oxo-5-pyrrolidinyl]-2-[(2R,2'S)-disec.butylamino]ethanol] | 83 nM | – | –
CC[C@@H](C)N(C[C@H](O)[C@@H]1CCC(=O)N1Cc1ccccc1)[C@H](C)CC [Compound 14, (1S)-1-[(5S)-2-oxo-1-(phenylmethyl)-5-pyrrolidinyl]-2-[(2R,2'R)-disec.butylamino]ethanol] | 0.43 nM | 0.04 mg/kg | IC50 (opioid receptors): 3.3 nM; ED50 [3, 4]: 6.5 mg/kg
CC[C@@H](C)N(C[C@@H](O)[C@@H]1CCC(=O)N1Cc1ccccc1F)[C@H](C)CC [Compound 15, (1R)-1-[(5S)-1-[(2-fluorophenyl)methyl]-2-oxo-5-pyrrolidinyl]-2-[(2R,2'R)-disec.butylamino]ethanol] | 40 nM | – | –
CC[C@@H](C)N(C[C@H](O)[C@@H]1CCC(=O)N1Cc1ccccc1F)[C@H](C)CC [Compound 16, (1S)-1-[(5S)-1-[(2-fluorophenyl)methyl]-2-oxo-5-pyrrolidinyl]-2-[(2R,2'R)-disec.butylamino]ethanol] | 0.29 nM | 0.03 mg/kg | IC50 (opioid receptors): 2.5 nM; ED50 [3, 4]: 5.8 mg/kg
CC[C@@H](C)N(C[C@H](O)[C@@H]1CCC(=O)N1Cc1cccc(OC)c1)[C@H](C)CC [Compound 18, (1S)-1-[(5S)-1-[(3-methoxyphenyl)methyl]-2-oxo-5-pyrrolidinyl]-2-[(2R,2'R)-disec.butylamino]ethanol] | 0.28 nM | 0.07 mg/kg | –
CC[C@@H](C)N(C[C@@H](O)[C@@H]1CCC(=O)N1Cc1ccc(Cl)c(Cl)c1)[C@H](C)CC [Compound 19, (1R)-1-[(5S)-1-[(3,4-dichlorophenyl)methyl]-2-oxo-5-pyrrolidinyl]-2-[(2R,2'R)-disec.butylamino]ethanol] | 0.77 nM | – | –
CC[C@@H](C)N(C[C@H](O)[C@@H]1CCC(=O)N1Cc1ccc(Cl)c(Cl)c1)[C@H](C)CC [Compound 20, (1S)-1-[(5S)-1-[(3,4-dichlorophenyl)methyl]-2-oxo-5-pyrrolidinyl]-2-[(2R,2'R)-disec.butylamino]ethanol] | 0.23 nM | 0.28 mg/kg | –
CC[C@@H](C)N(C[C@H](O)[C@@H]1CCC(=O)N1Cc1cc(Br)no1)[C@H](C)CC [Compound 22, (1S)-1-[(5S)-1-(3-bromo-5-isoxazolylmethyl)-2-oxo-5-pyrrolidinyl]-2-[(2R,2'R)-disec.butylamino]ethanol] | 4.96 nM | 1 mg/kg | IC50 (opioid receptors): 9.4 nM
CC[C@@H](C)N(C[C@H](O)[C@@H]1CCC(=O)N1Cc1cccc(C(F)(F)F)c1)[C@H](C)CC [Compound 24, (1S)-1-[(5S)-2-oxo-1-[(3-trifluoromethylphenyl)methyl]-5-pyrrolidinyl]-2-[(2R,2'R)-disec.butylamino]ethanol] | 2.9 nM | 0.5 mg/kg | –
CC[C@@H](C)N(C[C@H](O)[C@@H]1CCC(=O)N1Cc1ccc(Br)cc1)[C@H](C)CC [Compound 26, (1S)-1-[(5S)-1-[(4-bromophenyl)methyl]-2-oxo-5-pyrrolidinyl]-2-[(2R,2'R)-disec.butylamino]ethanol] | 0.04 nM | 0.03 mg/kg | –
CC(C)N(C[C@H](O)[C@@H]1CCC(=O)N1Cc1ccccc1Cl)C(C)C [Compound 34, (1S)-1-[(5S)-1-[(2-chlorophenyl)methyl]-2-oxo-5-pyrrolidinyl]-2-diisopropylaminoethanol] | 44.7 nM | – | –
O=C1CC[C@@H]([C@@H](O)CN(C2CCCC2)C2CCCC2)N1Cc1ccccc1Cl [Compound 36, (1S)-1-[(5S)-1-[(2-chlorophenyl)methyl]-2-oxo-5-pyrrolidinyl]-2-dicyclopentylaminoethanol] | 4.06 nM | 4.7 mg/kg | –
CC[C@@H](C)N(C[C@H](O)[C@@H]1CCC(=O)N1Cc1ccccc1Cl)C(C)C [Compound 38, (1S)-1-[(5S)-1-[(2-chlorophenyl)methyl]-2-oxo-5-pyrrolidinyl]-2-[[(R)-sec.butyl]isopropylamino]ethanol] | 21.5 nM | 1.1 mg/kg | –
CCC(CC)N(C[C@H](O)[C@@H]1CCC(=O)N1Cc1ccccc1Cl)C(CC)CC [Compound 40, (1S)-1-[(5S)-1-[(2-chlorophenyl)methyl]-2-oxo-5-pyrrolidinyl]-2-[bis(1-ethylpropyl)amino]ethanol] | 60 nM | – | –
CC[C@@H](C)N(CC(O)C1CCCC(=O)N1Cc1ccccc1Cl)[C@H](C)CC (stereo partly drawn) [Compound 43, 1-[2-[(2-chlorophenyl)methyl]-2-oxo-6-piperidinyl]-2-[(2R,2'R)-disec.butylamino]ethanol] | – | – | IC50 [2]: 0.5 nM; Analgesic activity ED50 (C.L. 95%), s.c. ([3]; subcutaneous, mouse hot plate test): 0.1 mg/kg
CN1CC[C@]23c4c5ccc(O)c4O[C@H]2[C@@H](O)C=C[C@H]3[C@H]1C5 [morphine, reference compound] | – | – | Percentage of jumping animals (total dose 156.0 mg/kg i.p.) ([1]; total dose 156.0 mg/kg i.p.): 80%; ED50 ([3]; Mus musculus, po, read-out: Analgesic activity ED50 (C.L. 95%), os): 18 mg/kg; ED50 ([3]; Mus musculus, sc, read-out: Analgesic activity ED50 (C.L. 95%), s.c.): 3.5 mg/kg
